# According to patent US9877960B2 (priority 2012, dated 2018):
# “Also recorded” adds a separate entry of the source.
# Tests used:
# AChE = AChE (Homo sapiens, UniProt P22303); assay: AChE inhibitory action with MATP+ substrate; type: biochemical; details: absorbance at 412 nm, read-out: concentration (IC50) required for 50% inhibition of AChE
# Experimental: (§1) The active ingredient of the agents of the present invention has AChE inhibitory action. AChE inhibitory action may be measured with MATP+ (1,1-dimethyl-4-acetylthiomethylpiperidine), which is a substrate having high selectivity for AChE (Biol Pharma Bull, 33(4), 702-706, 2010). Specifically, AChE is reacted with MATP+, and measurement is conducted using as an indicator a change in absorbance at 412 nm associated with reaction of detection reagent DNTB (5,5′-dithiobis(2-nitrobenzoic acid)).
# as §1, with “AChE” for “The active ingredient of the agents of the present invention has AChE inhibitory action. AChE”, “action was” for “action may be”, “AChE was” for “AChE is”, “measurement was” for “measurement is”
# mice [1] = assay: Single-dose acute toxicity test; type: in vivo, mouse; details: 2 g/kg single dose
# mice [2] = assay: Mice micronucleus test; type: in vivo
# [3] = test system: acetylcholine in the hippocampus; assay: Concentration of acetylcholine in the hippocampus of rats by microdialysis; type: in vivo, rat; details: 200 mg/kg oral once
# From the text: It is considered that the hippocampus region of the brain, in which a cholinergic neuron is known to be involved, has a function related to learning and memory. Since cholinergic neuron is impaired in degenerative disease with symptoms such as reduced learning and memory, an increase in the concentration of acetylcholine in the hippocampus will improve the symptoms such as reduced learning and memory. The concentration of acetylcholine in the rat hippocampus was increased about 2.5-fold, as measured by microdialysis, by the active ingredient of the agents of the present invention.
# A dialysis probe was embedded in the hippocampus of each rat, and measurement was conducted as in Example 1. 2,5-Piperazinedione,3,6-bis(phenylmethyl)-,(3S,6S) was suspended in 0.5% CMC-Na, and 200 mg/kg was orally administered once. The amount of acetylcholine in 15 μl of perfusion liquid collected immediately before the […] oral administration and every 30 minutes after the oral administration was quantitatively determined by HPLC-ECD. The results obtained within the period from 1 hour before the oral administration to 3 hours after the oral administration are shown in FIG. 3, where the time immediately before the oral administration of the test sample is set to 0 minute. […]
# [4] = Chromosome aberration test
# [5] = test system: loser mice (mice in a depressive state); assay: Morris water maze test with mice in a depressive state (loser mice); type: in vivo, mouse; details: loser C57BL/6 mice
# Experimental: The active ingredient of the agents of the present invention has antidepressive action. Antidepressive action as SSRI may be measured by a method described in a published document (Exp Anim, 59(2), 191-197, 2010). Specifically, first, a Morris water maze test is conducted for 8 days using mice.
# The active ingredient of the agents of the present invention has learning motivation improving action. The Morris water maze test has been reported as a method for measuring spatial memory and learning (Learn. Motiv. 12, 239-260 (1981)). In this test, the time required to reach an escape platform (escape latency) is used as a parameter for evaluation, because mice will remember their surrounding scenery and swim in a pool filled with water to try to find and reach the escape platform, which is a goal, with their memory as a guide. Since mice used in a main test are chosen from those which were subjected to the Morris water maze test for 8 days and could not reach the escape platform within […], a reduction in the time required to reach the escape platform can be regarded as an improvement in learning motivation.
# Antidepressive action was measured in accordance with a published document (Exp Anim, 59(2), 191-197, 2010). […]
# rats = type: in vivo; details: 28-day repeated dose
# [6] = test system: serotonin in the prefrontal region; assay: Concentration of serotonin in the prefrontal region of rats by microdialysis; type: in vivo, rat
# Experimental: The active ingredient of the agents of the present invention has the effect of increasing the concentration of serotonin in the synaptic cleft via inhibitory activity on SERT binding.
# Male SD rats which were 10 to 12 weeks of age were used. The concentration of serotonin in the prefrontal region of each rat was measured in accordance with a published document (Kehr J., and Yoshitake T. (2006) Monitoring brain chemical signals by microdialysis. In: Encyclopedia of Sensors, Vol. 6. (Eds. C. A. Grimes, E. C. Dickey and M. V. Pishko) American Scientific Publishers, USA. 287-312) by microdialysis. Specifically, a dialysis probe was implanted in the prefrontal region of each rat under isoflurane anesthesia. Five days after the implantation surgery, artificial cerebrospinal fluid (148 mM of NaCl, 4 mM of KCl, 0.8 mM of MgCl2, 1.4 mM of CaCl2, 1.2 mM of Na2HPO4, 0.3 mM of NaH2PO4, pH 7.2)) was perfused at the flow rate of 1 μl/min under ambulatory conditions without anesthesia. 2,5-Piperazinedione,3,6-bis(phenylmethyl)-,(3S,6S) was suspended in 0.5% sodium carboxymethylcellulose (CMC-Na), and 2 mg/kg, 20 mg/kg, and 200 mg/kg were orally administered for 14 consecutive days. The amount of […] in 15 μl of perfusion liquid collected immediately before the final oral administration and every 30 minutes after the oral administration was quantitatively determined by HPLC-ECD. The results obtained within the period from 1 hour before the oral administration to 3 hours after the oral administration are shown in FIG. 1, where the time immediately before the oral administration of the test sample is set to 0 minute.
# [7] = test system: rats with scopolamine-induced impairment of learning; assay: Radial maze test using rats with scopolamine-induced impairment of learning; type: in vivo, rat; details: 200 mg/kg oral, scopolamine 0.5 mg/kg i.p., 8-direction radial maze
# Experimental: Scopolamine is a non-selective competitive antagonist of muscarinic acetylcholine receptors. Laboratory animals with scopolamine-induced impairment of learning are widely used as a memory disorder model.
# Using SD male rats which were 7 weeks of age, practice training was conducted while the rats were under food deprivation, and thereafter a main test was conducted.
# Food was placed at the end of each arm of an 8-direction radial maze, and an animal was placed on a platform at the center of the maze. Completion of one trial was when the animal finished acquiring food from all arms or when 10 minutes elapsed since the animal was placed on the platform. The training was conducted once a day. “Correct choice” was defined as visiting an unselected arm in the trial, and “wrong choice” was defined as visiting an arm from where food had already been acquired.
# 2,5-Piperazinedione,3,6-bis(phenylmethyl)-,(3S,6S) was suspended in 0.5% CMC-Na, and 20 mg/kg and 200 mg/kg were orally administered to the rats which attained the standard in the above practice training trials. Ten minutes after the oral administration, 0.5 mg/kg of scopolamine was intraperitoneally administered. Thirty minutes after the intraperitoneal administration of scopolamine, an 8-direction radial maze test was conducted, and the number of wrong choices and the time taken for the […] to acquire all food were counted. […]
# [8] = listed as active ingredient of the agents of the present invention
# Sequence of AChE (P22303 32-614): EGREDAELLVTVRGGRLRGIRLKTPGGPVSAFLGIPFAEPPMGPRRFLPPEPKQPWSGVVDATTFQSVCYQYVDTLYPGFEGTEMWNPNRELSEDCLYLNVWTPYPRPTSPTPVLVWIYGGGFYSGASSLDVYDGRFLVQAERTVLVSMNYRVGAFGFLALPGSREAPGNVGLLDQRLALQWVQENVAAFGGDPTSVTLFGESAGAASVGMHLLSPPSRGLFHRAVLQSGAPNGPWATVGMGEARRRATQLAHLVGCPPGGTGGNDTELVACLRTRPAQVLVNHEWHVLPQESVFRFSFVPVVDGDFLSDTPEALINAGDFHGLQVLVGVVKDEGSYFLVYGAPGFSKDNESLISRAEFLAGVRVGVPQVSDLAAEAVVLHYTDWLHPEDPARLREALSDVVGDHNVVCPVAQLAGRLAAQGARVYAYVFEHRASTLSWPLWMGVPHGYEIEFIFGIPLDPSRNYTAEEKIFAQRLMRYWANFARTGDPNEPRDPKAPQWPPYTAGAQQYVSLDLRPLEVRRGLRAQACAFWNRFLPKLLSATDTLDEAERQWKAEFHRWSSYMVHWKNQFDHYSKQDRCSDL
smiles,measurement,setting,value
"O=C1N[C@@H](Cc2ccccc2)C(=O)N[C@H]1Cc1ccccc1 [2,5-piperazinedione,3,6-bis(phenylmethyl)-,(3S,6S)]",IC50,AChE,3.4 µM
same,toxicity in single-dose acute toxicity test,mice [1],no toxicity
same,mutagenicity in mice micronucleus test,mice [2],no mutagenicity
same,increase of concentration of acetylcholine in the hippocampus,[3],2.5 fold
same,increase of concentration of acetylcholine in the hippocampus,[3]; [8],about 2.5 fold
same,mutagenicity in chromosome aberration test,[4],no mutagenicity
same,escape latency,[5]; oral 0.2 mg/kg or more,reduced significantly
same,escape latency,"[5]; oral 0.02, 0.2, 2 and 20 mg/kg, dose dependence","dose-dependent, significant reduction; also recorded: reduced dose-dependently"
same,mutagenicity in Ames test,Ames test,no mutagenicity
same,no-observable-effect level,rats,≥ 10 mg/kg/day
same,concentration of serotonin in the prefrontal region,"[6]; male SD rats, 20 mg/kg oral, 14 consecutive days",increased significantly
same,concentration of serotonin in the prefrontal region,"[6]; male SD rats, 200 mg/kg oral, 14 consecutive days",increased significantly
same,concentration of serotonin in the prefrontal region,"[6]; normal rats, oral for 2 weeks, across doses",increased dose-dependently and significantly
same,percentage of correct choices,[7],improved significantly
same,percentage of correct choices,[7]; [8],significantly improved
